In brackets after ≈: the same amount, converted by molar mass. Read-outs that look alike come from different tables or passages of the source.
What was measured:
Assay type in all cases: cell-based
MCF-7 cells = assay: MTT cell viability assay, MCF-7 cells; details: Homo sapiens
Protocol: (§1) MCF-7, HeLa, and RAW264.7 cells were cultured in DMEM supplemented with 10% FBS and 1% penicillin/streptomycin. Cell culture was maintained at 37 °C in a 5% CO2 incubator.
(§2) The assessment of cell viability was performed using an MTT assay to assess the cytotoxic effects of CCL on MCF-7, Hela, and RAW264.7 cells. Initially, MCF-7, HeLa, and RAW264.7 cells were seeded onto 96-well plates at a density of 2 × 10^4 cells/mL. Following a 24-h incubation period, the culture medium was replaced with a serum-free medium containing specified concentrations of CCL, verbascoside, isoverbascoside, and hispidulin ranging from 12.5 to 1000 µg/mL. Following 24, 48, and 72 h of treatment, an MTT solution (0.5 mg/mL in culture medium) was added to each well and incubated at 37 °C for 2 h. The metabolically active cells converted MTT into formazan crystals, which were then dissolved in 100 µL of DMSO per well. Absorbance was recorded at 550 nm using a SpectraMax 3 microplate reader (Molecular Devices, San Jose, CA, USA). The IC50 values were determined using GraphPad Prism v.7.0 (La Jolla, CA, USA). Cell viability was assessed in comparison to untreated control cells using the following equation: Cell viability %=A550sample/A550control×100%

HeLa cells = assay: MTT cell viability assay, HeLa cells; details: Homo sapiens
Protocol: as §1, §2

RAW 264.7 macrophages = assay: MTT cell viability assay, RAW264.7 cells; details: Mus musculus
Protocol: as §1, §2

IC50 (MCF-7 cells; MCF7, MCF-7, 24 h, MTT, read-out: IC50)	IC50 (MCF-7 cells; MCF7, MCF-7, 48 h, MTT, read-out: IC50)	IC50 (MCF-7 cells; MCF7, MCF-7, 72 h, MTT, read-out: IC50)	IC50 (HeLa cells; 24 h, MTT, read-out: IC50)	IC50 (HeLa cells; 48 h, MTT, read-out: IC50)	IC50 (HeLa cells; 72 h, MTT, read-out: IC50)	Structure (SMILES)	IC50 (MCF-7 cells; MCF7, 24 h)	IC50 (MCF-7 cells; MCF7, 48 h)	IC50 (MCF-7 cells; MCF7, 72 h)	IC50 (HeLa cells; 24 h)	IC50 (HeLa cells; 48 h)	IC50 (HeLa cells; 72 h)	IC50 (RAW 264.7 macrophages; RAW264.7, 24 h)	IC50 (RAW 264.7 macrophages; RAW264.7, 48 h)	IC50 (RAW 264.7 macrophages; RAW264.7, 72 h)	IC50 (RAW 264.7 macrophages; RAW264.7, RAW 264.7, 24 h, MTT, read-out: IC50)	IC50 (RAW 264.7 macrophages; RAW264.7, RAW 264.7, 48 h, MTT, read-out: IC50)	IC50 (RAW 264.7 macrophages; RAW264.7, RAW 264.7, 72 h, MTT, read-out: IC50)
						COc1c(O)cc2oc(-c3ccc(O)cc3)cc(=O)c2c1O [Hispidulin]	905 µg/mL (≈ 3010 µM)	710 µg/mL (≈ 2370 µM)	527 µg/mL (≈ 1760 µM)	98.2 µg/mL (≈ 327 µM)	119 µg/mL (≈ 397 µM)	311 µg/mL (≈ 1040 µM)	99.2 µg/mL (≈ 330 µM)	120 µg/mL (≈ 401 µM)	180 µg/mL (≈ 600 µM)			
186 µg/mL (≈ 297 µM)	184 µg/mL (≈ 294 µM)	173 µg/mL (≈ 277 µM)	373 µg/mL (≈ 597 µM)	291 µg/mL (≈ 466 µM)	342 µg/mL (≈ 547 µM)	C[C@@H]1O[C@@H](O[C@@H]2[C@@H](O)[C@H](OCCc3ccc(O)c(O)c3)O[C@H](CO)[C@H]2OC(=O)/C=C/c2ccc(O)c(O)c2)[C@H](O)[C@H](O)[C@H]1O [Verbascoside]										432 µg/mL (≈ 691 µM)	446 µg/mL (≈ 714 µM)	480 µg/mL (≈ 769 µM)

From publication PMC11943097, “Phytochemical Characterization and Anticancer Activity of Clerodendrum chinense Leaf Extract Against Breast and Cervical Cancer Cells” (International Journal of Molecular Sciences, 2025)
